Each compound was assayed against Human factor D (Homo sapiens (Human), UniProt P00746). Details: not given.
Assay type: biochemical

Human factor D, sequence (P00746 26-253 limits assumed): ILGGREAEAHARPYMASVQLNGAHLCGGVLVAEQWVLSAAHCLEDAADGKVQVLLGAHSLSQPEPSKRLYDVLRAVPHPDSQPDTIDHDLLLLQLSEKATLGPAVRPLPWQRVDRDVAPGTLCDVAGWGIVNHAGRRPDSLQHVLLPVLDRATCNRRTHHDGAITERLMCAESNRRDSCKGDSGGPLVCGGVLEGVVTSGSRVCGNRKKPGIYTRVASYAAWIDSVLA

Structure (SMILES)	IC50
CC(=O)c1cn(CC(=O)Oc2ccc3c(c2)c(C(C)=O)cn3CC(=O)N2C[C@H](F)C[C@H]2C(=O)NCc2cccc(Cl)c2F)c2ccc(O)cc12 [Compound 1, 3-acetyl-1-(2-((2S,4R)-2-(3-chloro-2-fluorobcnzylcarbamoyl)-4-fluoropyrrolidin-1-yl)-2-oxoethyl)-1H-indol-5-yl 2-(3-acctyl-5-hydroxy-1H-indol-1-yl)acctate]	< 1000 nM
CC(=O)c1cn(CC(=O)N2C[C@H](F)C[C@H]2C(=O)NCc2cccc(Cl)c2F)c2ccc(OC(=O)NCc3cscn3)cc12 [Compound 2, 3-acctyl-1-(2-((2S,4R)-2-(3-chloro-2-fluorobenzylcarbamoyl)-4-fluoropyrrolidin-1-yl)-2-oxoethyl)-1H-indol-5-yl thiazol-4-ylmethylcarbamate]	< 1000 nM
CC(=O)c1cn(CC(=O)N2C[C@H](F)C[C@H]2C(=O)NCc2cccc(Cl)c2F)c2cc(OC(=O)NCc3cscn3)ccc12 [Compound 3, 3-acctyl-1-(2-((2S,4R)-2-(3-chloro-2-fluorobenzylcarbamoyl)-4-fluoropyrrolidin-1-yl)-2-oxoethyl)-1H-indol-6-yl thiazol-4-ylmethylcarbamate]	< 1000 nM
CC(=O)c1cn(CC(=O)N2C[C@H](F)C[C@H]2C(=O)NCc2cccc(Cl)c2F)c2cc(OC(=O)NCc3nn[nH]n3)ccc12 [Compound 4, 3-acetyl-1-(2-((2S,4R)-2-(3-chloro-2-fluorobenzylcarbamoyl)-4-fluoropyrrolidin-1-yl)-2-oxoethyl)-1H-indol-6-yl (2H-tetrazol-5-yl)methylcarbamate]	< 1000 nM
CC(=O)c1cn(CC(=O)N2C[C@H](F)C[C@H]2C(=O)NCc2cccc(Cl)c2F)c2cc(OC(=O)NCCc3nn[nH]n3)ccc12 [Compound 5, 3-acctyl-1-(2-((2S,4R)-2-(3-chloro-2-fluorobenzylcarbamoyl)-4-fluoropyrrolidin-1-yl)-2-oxoethyl)-1H-indol-6-yl 2-(2H-tetrazol-5-yl)ethylcarbamate]	< 1000 nM
CC(=O)c1cn(CC(=O)N2C[C@H](F)C[C@H]2C(=O)NCc2cccc(Cl)c2F)c2cc(OC(=O)NCCP(=O)(O)O)ccc12 [Compound 6, 2-((3-acctyl-1-(2-((2S,4R)-2-(3-chloro-2-fluorobenzylcarbamoyl)-4-fluoropyrrolidin-1-yl)-2-oxoethyl)-1H-indol-6-yloxy)carbonylamino) ethylphosphonic acid]	< 1000 nM
CC(=O)c1cn(CC(=O)N2C[C@H](F)C[C@H]2C(=O)NCc2cccc(Cl)c2F)c2cc(OC(=O)NCc3ccc(B(O)O)cc3)ccc12 [Compound 7, 4-(((3-acetyl-1-(2-((2S,4R)-2-(3-chloro-2-fluorobenzylcarbamoyl)-4-fluoropyrrolidin-1-yl)-2-oxoethyl)-1H-indol-6-yloxy)carbonylamino)methyl)phenylboronic acid]	< 1000 nM
CC(=O)c1cn(CC(=O)N2C[C@H](F)C[C@H]2C(=O)NCc2cccc(Cl)c2F)c2ccc(OC(=O)NC3CC3)cc12 [Compound 8, 3-acetyl-1-(2-((2S,4R)-2-(3-chloro-2-fluorobenzylcarbamoyl)-4-fluoropyrrolidin-1-yl)-2-oxoethyl)-1H-indol-5-yl cyclopropylcarbamate]	< 1000 nM
CC(=O)c1cn(CC(=O)N2C[C@H](F)C[C@H]2C(=O)NCc2cccc(Cl)c2F)c2ccc(OC(=O)NCc3cocn3)cc12 [Compound 9, 3-acctyl-1-(2-((2S,4R)-2-(3-chloro-2-fluorobenzylcarbamoyl)-4-fluoropyrrolidin-1-yl)-2-oxoethyl)-1H-indol-5-yl oxazol-4-ylmethylcarbamate]	< 1000 nM
CC(=O)c1cn(CC(=O)N2C[C@H](F)C[C@H]2C(=O)NCc2cccc(Cl)c2F)c2ccc(OC(=O)NCc3nnn[nH]3)cc12 [Compound 10, 3-acetyl-1-(2-((2S,4R)-2-(3-chloro-2-fluorobenzylcarbamoyl)-4-fluoropyrrolidin-1-yl)-2-oxoethyl)-1H-indol-5-yl (1H-tetrazol-5-yl)methylcarbamate]	< 1000 nM
CC(=O)c1cn(CC(=O)N2C[C@H](F)C[C@H]2C(=O)NCc2cccc(Cl)c2F)c2cc(C(=O)C[S+](C)[O-])ccc12 (stereo partly drawn) [Compound 11, (2S,4R)-1-(2-(3-acetyl-6-(2-(methylsulfinyl)acetyl)-1H-indol-1-yl)acetyl)-N-(3-chloro-2-fluorobenzyl)-4-fluoropyrrolidine-2-carboxamide]	< 1000 nM
CC(=O)c1cn(CC(=O)N2C[C@H](F)C[C@H]2C(=O)NCc2cccc(Cl)c2F)c2ccc(OC(=O)N3CCOCC3)cc12 [Compound 12, 3-acetyl-1-(2-((2S,4R)-2-(3-chloro-2-fluorobenzylcarbamoyl)-4-fluoropyrrolidin-1-yl)-2-oxoethyl)-1H-indol-5-yl morpholine-4-carboxylate]	< 1000 nM
CC(=O)c1cn(CC(=O)N2C[C@H](F)C[C@H]2C(=O)NCc2cccc(Cl)c2F)c2ccc(OC(=O)NCc3ncccn3)cc12 [Compound 13, 3-acctyl-1-(2-((2S,4R)-2-(3-chloro-2-fluorobenzylcarbamoyl)-4-fluoropyrrolidin-1-yl)-2-oxoethyl)-1H-indol-5-yl pyrimidin-2-ylmethylcarbamate]	< 1000 nM
CC(=O)c1cn(CC(=O)N2C[C@H](F)C[C@H]2C(=O)NCc2cccc(Cl)c2F)c2ccc(OC(=O)NCCc3nn[nH]n3)cc12 [Compound 14, 3-acctyl-1-(2-((2S,4R)-2-(3-chloro-2-fluorobenzylcarbamoyl)-4-fluoropyrrolidin-1-yl)-2-oxoethyl)-1H-indol-5-yl 2-(2H-tetrazol-5-yl)ethylcarbamate]	< 1000 nM
CC(=O)c1cn(CC(=O)N2C[C@H](F)C[C@H]2C(=O)NCc2cccc(Cl)c2F)c2ccc(OC(=O)NCCc3c[nH]cn3)cc12 [Compound 15, 3-acctyl-1-(2-((2S,4R)-2-(3-chloro-2-fluorobenzylcarbamoyl)-4-fluoropyrrolidin-1-yl)-2-oxoethyl)-1H-indol-5-yl 2-(1H-imidazol-4-yl)ethylcarbamate]	< 1000 nM

Same assay, conditions: factor D 80 nM, substrate Z-L-Lys-SBzl 100 μM, DTNB, pH 7.5

Structure (SMILES)	IC50
CC(=O)c1cn(CC(=O)N2C[C@H](F)C[C@H]2C(=O)NCc2cccc(Cl)c2F)c2ccc(OC(=O)N3CCNCC3)cc12 [Compound 16, 3-acetyl-1-(2-((2S,4R)-2-(3-chloro-2-fluorobenzylcarbamoyl)-4-fluoropyrrolidin-1-yl)-2-oxoethyl)-1H-indol-5-yl piperazine-1-carboxylate]	< 1000 nM

Source: patent publication US9732103B2 (priority 2014, dated 2017)
